# Experimental data taken from patent US10758534B2 (Vertex Pharmaceuticals Incorporated, priority 2014, dated 2020).
# Target: T1, F508del (Homo sapiens, UniProt P13569, DEL508-508)
# T1 construct: expressed in transfected cells
# Assay: Protocol 2: FRET membrane potential optical assay (VIPR), identification of correction compounds
# Type: cell-based
# Conditions: F508del CFTR modulator activity; compounds of Table 1; read-out: EC30
# How it was run: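 Mouse NIH3T3 cells, stable F508del; cpd 16 hrs, 37° C., serum-free; pos ctrl 27° C. 16 hrs. Rinse in Krebs Ringers, dye load, then add 10 μM forskolin + 20 μM genistein with Cl^−-free (gluconate) medium; depolarization by FRET voltage dyes.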
# T1 sequence (P13569 with tags, fused parts or gaps DEL508-508): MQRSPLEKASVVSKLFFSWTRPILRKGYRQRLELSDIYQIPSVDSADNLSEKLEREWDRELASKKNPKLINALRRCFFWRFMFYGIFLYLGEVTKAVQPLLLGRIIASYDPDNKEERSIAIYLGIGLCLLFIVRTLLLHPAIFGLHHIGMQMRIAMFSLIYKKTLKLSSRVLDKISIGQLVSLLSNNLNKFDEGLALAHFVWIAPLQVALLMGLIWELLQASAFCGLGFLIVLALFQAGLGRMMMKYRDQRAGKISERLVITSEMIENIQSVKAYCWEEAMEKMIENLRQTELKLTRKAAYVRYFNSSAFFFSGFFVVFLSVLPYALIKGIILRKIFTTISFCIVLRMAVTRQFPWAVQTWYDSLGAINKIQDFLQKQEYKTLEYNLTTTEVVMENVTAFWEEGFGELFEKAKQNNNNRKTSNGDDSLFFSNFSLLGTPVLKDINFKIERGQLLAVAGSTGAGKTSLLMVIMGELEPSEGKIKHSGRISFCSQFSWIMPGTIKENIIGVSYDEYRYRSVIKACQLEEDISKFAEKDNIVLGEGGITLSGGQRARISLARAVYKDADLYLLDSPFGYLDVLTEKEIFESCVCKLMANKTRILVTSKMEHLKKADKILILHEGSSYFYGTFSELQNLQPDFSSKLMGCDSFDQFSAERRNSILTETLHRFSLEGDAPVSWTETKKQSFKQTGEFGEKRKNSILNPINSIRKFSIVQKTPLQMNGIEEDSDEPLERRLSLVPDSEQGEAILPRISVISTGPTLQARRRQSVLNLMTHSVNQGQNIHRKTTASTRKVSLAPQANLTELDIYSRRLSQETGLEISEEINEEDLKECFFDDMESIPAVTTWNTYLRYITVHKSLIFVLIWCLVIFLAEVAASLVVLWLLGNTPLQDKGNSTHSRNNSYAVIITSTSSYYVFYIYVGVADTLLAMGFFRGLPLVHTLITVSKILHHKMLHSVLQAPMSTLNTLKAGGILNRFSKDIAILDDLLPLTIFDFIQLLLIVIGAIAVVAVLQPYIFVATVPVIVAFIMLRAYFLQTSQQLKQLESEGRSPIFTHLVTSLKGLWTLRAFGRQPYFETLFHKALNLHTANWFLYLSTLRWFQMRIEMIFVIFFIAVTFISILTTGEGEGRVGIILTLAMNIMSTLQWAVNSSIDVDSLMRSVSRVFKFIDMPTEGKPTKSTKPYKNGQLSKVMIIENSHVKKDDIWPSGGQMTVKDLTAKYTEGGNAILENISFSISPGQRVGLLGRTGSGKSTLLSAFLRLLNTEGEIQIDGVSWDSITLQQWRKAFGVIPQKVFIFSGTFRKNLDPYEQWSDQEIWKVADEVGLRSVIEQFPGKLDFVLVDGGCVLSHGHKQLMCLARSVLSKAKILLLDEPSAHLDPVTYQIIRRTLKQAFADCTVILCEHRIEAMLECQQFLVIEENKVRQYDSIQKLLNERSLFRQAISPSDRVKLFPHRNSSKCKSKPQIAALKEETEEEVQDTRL
row,EC30 [nM],SMILES
1,< 3000,"CC1CN(c2ncccc2C(=O)NS(=O)(=O)c2cccc(OCC3CC=CCC3C)n2)C(C)(C)C1 (centres unmarked) [Compound 2001, N—[[6-[(6-methylcyclohex-3-en-1-yl)methoxy]-2-pyridyl]sulfonyl]-2-(2,2,4-trimethylpyrrolidin-1-yl)pyridine-3-carboxamide]"
2,< 3000,"CCN(CC)c1cc(C)cc(-c2ccc(C(=O)NS(=O)(=O)c3cccc(N)n3)c(N3C[C@@H](C)CC3(C)C)n2)n1 [Compound 2002, N-[(6-amino-2-pyridyl)sulfonyl]-6-[6-(diethylamino)-4-methyl-2-pyridyl]-2-[(4S)-2,2,4-trimethylpyrrolidin-1-yl]pyridine-3-carboxamide]"
3,< 3000,"CC1CN(c2ncccc2C(=O)NS(=O)(=O)c2cccc(Oc3ccc4[nH]ccc4c3)n2)C(C)(C)C1 (centres unmarked) [Compound 2003, N—[[6-(1H-indol-5-yloxy)-2-pyridyl]sulfonyl]-2-(2,2,4-trimethylpyrrolidin-1-yl)pyridine-3-carboxamide]"
4,< 3000,"CC1CN(c2ncccc2C(=O)NS(=O)(=O)c2cccc(NCc3cccs3)n2)C(C)(C)C1 (centres unmarked) [Compound 2004, N—[[6-(2-thienylmethylamino)-2-pyridyl]sulfonyl]-2-(2,2,4-trimethylpyrrolidin-1-yl)pyridine-3-carboxamide]"
5,3000 to 10000,"CC1CN(c2ncccc2C(=O)NS(=O)(=O)c2cccc(N(C)CCc3cccnc3)n2)C(C)(C)C1 (centres unmarked) [Compound 2005, N—[[6-[methyl-[2-(3-pyridyl)ethyl]amino]-2-pyridyl]sulfonyl]-2-(2,2,4-trimethylpyrrolidin-1-yl)pyridine-3-carboxamide]"
6,< 3000,"COc1c(F)cc(F)cc1-c1ccc(C(=O)NS(=O)(=O)c2cccnc2N)c(N2C[C@@H](C)CC2(C)C)n1 [Compound 2006, N-[(2-amino-3-pyridyl)sulfonyl]-6-(3,5-difluoro-2-methoxy-phenyl)-2-[(4S)-2,2,4-trimethylpyrrolidin-1-yl]pyridine-3-carboxamide]"
7,< 3000,"C[C@@H]1CN(c2nc(-c3cccc4ccccc34)ccc2C(=O)NS(=O)(=O)c2ccc[nH]c2=O)C(C)(C)C1 [Compound 2007, 6-(1-naphthyl)-N-[(2-oxo-1H-pyridin-3-yl)sulfonyl]-2-[(4S)-2,2,4-trimethylpyrrolidin-1-yl]pyridine-3-carboxamide]"
8,3000 to 10000,"COc1ncc(-c2ccc(C(=O)NS(=O)(=O)c3cccnc3N)c(N3C[C@@H](C)CC3(C)C)n2)c(OC)n1 [Compound 2008, N-[(2-amino-3-pyridyl)sulfonyl]-6-(2,4-dimethoxypyrimidin-5-yl)-2-[(4S)-2,2,4-trimethylpyrrolidin-1-yl]pyridine-3-carboxamide]"
9,< 3000,"CC1CN(c2ncccc2C(=O)NS(=O)(=O)c2cccc(N3CCC4CCCCC4C3)n2)C(C)(C)C1 (centres unmarked) [Compound 2011, N—[[6-(3,4,4a,5,6,7,8,8a-octahydro-1H-isoquinolin-2-yl)-2-pyridyl]sulfonyl]-2-(2,2,4-trimethylpyrrolidin-1-yl)pyridine-3-carboxamide]"
10,< 3000,"CC1CN(c2ncccc2C(=O)NS(=O)(=O)c2cccc(OCc3cccc(N(C)C)c3)n2)C(C)(C)C1 (centres unmarked) [Compound 2012, N—[[6-[[3-(dimethylamino)phenyl]methoxy]-2-pyridyl]sulfonyl]-2-(2,2,4-trimethylpyrrolidin-1-yl)pyridine-3-carboxamide]"
11,< 3000,"CC1CN(c2ncccc2C(=O)NS(=O)(=O)c2cccc(Oc3ccc4c(c3)OCO4)n2)C(C)(C)C1 (centres unmarked) [Compound 2013, N—[[6-(1,3-benzodioxol-5-yloxy)-2-pyridyl]sulfonyl]-2-(2,2,4-trimethylpyrrolidin-1-yl)pyridine-3-carboxamide]"
12,< 3000,"CC1CN(c2ncc(/C=C/c3ccc(C(F)(F)F)cc3)cc2C(=O)NS(=O)(=O)c2cccc(N)n2)C(C)(C)C1 (centres unmarked) [Compound 2014, N-[(6-amino-2-pyridyl)sulfonyl]-5-[(E)-2-[4-(trifluoromethyl)phenyl]vinyl]-2-(2,2,4-trimethylpyrrolidin-1-yl)pyridine-3-carboxamide]"
13,< 3000,"CC1CN(c2ncccc2C(=O)NS(=O)(=O)c2cccc(Oc3ccccc3F)n2)C(C)(C)C1 (centres unmarked) [Compound 2015, N—[[6-(2-fluorophenoxy)-2-pyridyl]sulfonyl]-2-(2,2,4-trimethylpyrrolidin-1-yl)pyridine-3-carboxamide]"
14,3000 to 10000,"Cc1ccc(F)c(-c2ccc(C(=O)NS(=O)(=O)N3CC[C@H](N)C3)c(N3C[C@@H](C)CC3(C)C)n2)c1 [Compound 2016, N-[(3S)-3-aminopyrrolidin-1-yl]sulfonyl-6-(2-fluoro-5-methyl-phenyl)-2-[(4S)-2,2,4-trimethylpyrrolidin-1-yl]pyridine-3-carboxamide]"
15,< 3000,"Cc1ccc(-c2ccc(C(=O)NS(=O)(=O)c3cccnc3N)c(N3C[C@@H](C)CC3(C)C)n2)cc1C [Compound 2017, N-[(2-amino-3-pyridyl)sulfonyl]-6-(3,4-dimethylphenyl)-2-[(4S)-2,2,4-trimethylpyrrolidin-1-yl]pyridine-3-carboxamide]"
16,< 3000,"CCOc1cc(F)cc(-c2ccc(C(=O)NS(=O)(=O)c3cccnc3N)c(N3C[C@@H](C)CC3(C)C)n2)c1 [Compound 2018, N-[(2-amino-3-pyridyl)sulfonyl]-6-(3-ethoxy-5-fluoro-phenyl)-2-[(4S)-2,2,4-trimethylpyrrolidin-1-yl]pyridine-3-carboxamide]"
17,< 3000,"CC1CN(c2ncccc2C(=O)NS(=O)(=O)c2cccc(OCC(C)C3CCCCC3)n2)C(C)(C)C1 (centres unmarked) [Compound 2019, N—[[6-(2-cyclohexylpropoxy)-2-pyridyl]sulfonyl]-2-(2,2,4-trimethylpyrrolidin-1-yl)pyridine-3-carboxamide]"
18,< 3000,"CC(C)[C@@H](C)Oc1nc(N2C[C@@H](C)CC2(C)C)c(C(=O)NS(=O)(=O)c2cccc(N)n2)cc1F [Compound 2020, N-[(6-amino-2-pyridyl)sulfonyl]-6-[(1R)-1,2-dimethylpropoxy]-5-fluoro-2-[(4S)-2,2,4-trimethylpyrrolidin-1-yl]pyridine-3-carboxamide]"
19,3000 to 10000,"C[C@@H]1CN(c2nc(-c3cnc(N(C)C)nc3)ccc2C(=O)NS(=O)(=O)c2cccnc2N)C(C)(C)C1 [Compound 2021, N-[(2-amino-3-pyridyl)sulfonyl]-6-[2-(dimethylamino)pyrimidin-5-yl]-2-[(4S)-2,2,4-trimethylpyrrolidin-1-yl]pyridine-3-carboxamide]"
20,< 3000,"CC1CN(c2ncccc2C(=O)NS(=O)(=O)c2cccc(Nc3ccc(-c4ccccc4)cc3)n2)C(C)(C)C1 (centres unmarked) [Compound 2023, N—[[6-(4-phenylanilino)-2-pyridyl]sulfonyl]-2-(2,2,4-trimethylpyrrolidin-1-yl)pyridine-3-carboxamide]"
21,3000 to 10000,"COC[C@@H]1CCCN1c1cccc(S(=O)(=O)NC(=O)c2cccnc2N2CC(C)CC2(C)C)n1 (stereo partly drawn) [Compound 2024, N—[[6-[(2S)-2-(methoxymethyl)pyrrolidin-1-yl]-2-pyridyl]sulfonyl]-2-(2,2,4-trimethylpyrrolidin-1-yl)pyridine-3-carboxamide]"
22,< 3000,"CC1CN(c2ncccc2C(=O)NS(=O)(=O)c2cccc(NCC3CCCC3)n2)C(C)(C)C1 (centres unmarked) [Compound 2026, N—[[6-(cyclopentylmethylamino)-2-pyridyl]sulfonyl]-2-(2,2,4-trimethylpyrrolidin-1-yl)pyridine-3-carboxamide]"
23,< 3000,"CC(C)OC(=O)N1CC=C(c2cc(C(=O)NS(=O)(=O)c3cccc(N)n3)c(N3C[C@@H](C)CC3(C)C)nc2C(C)(C)C)CC1 [Compound 2027, isopropyl 4-[5-[(6-amino-2-pyridyl)sulfonylcarbamoyl]-2-tert-butyl-6-[(4S)-2,2,4-trimethylpyrrolidin-1-yl]-3-pyridyl]-3,6-dihydro-2H-pyridine-1-carboxylate]"
24,< 3000,"C[C@@H]1CN(c2nc(-c3ccc(Cl)cc3)ccc2C(=O)NS(=O)(=O)c2ccc[nH]c2=O)C(C)(C)C1 [Compound 2028, 6-(4-chlorophenyl)-N-[(2-oxo-1H-pyridin-3-yl)sulfonyl]-2-[(4S)-2,2,4-trimethylpyrrolidin-1-yl]pyridine-3-carboxamide]"
25,< 3000,"C[C@@H]1CN(c2nc(-c3cccc(OC(F)(F)F)c3)ccc2C(=O)NS(=O)(=O)N2CC[C@H](N)C2)C(C)(C)C1 [Compound 2029, N-[(3S)-3-aminopyrrolidin-1-yl]sulfonyl-6-[3-(trifluoromethoxy)phenyl]-2-[(4S)-2,2,4-trimethylpyrrolidin-1-yl]pyridine-3-carboxamide]"
26,< 3000,"CC1CCCN(c2cccc(S(=O)(=O)NC(=O)c3cccnc3N3CC(C)CC3(C)C)n2)C1 (centres unmarked) [Compound 2030, N—[[6-(3-methyl-1-piperidyl)-2-pyridyl]sulfonyl]-2-(2,2,4-trimethylpyrrolidin-1-yl)pyridine-3-carboxamide]"

row,SMILES,EC30 [nM]
1,"CC(C)COc1cc(F)cc(-c2nc(N3C[C@@H](C)CC3(C)C)c(C(=O)NS(=O)(=O)c3cccc(N)n3)cc2I)c1 [Compound 2009, N-[(6-amino-2-pyridyl)sulfonyl]-6-(3-fluoro-5-isobutoxy-phenyl)-5-iodo-2-[(4S)-2,2,4-trimethylpyrrolidin-1-yl]pyridine-3-carboxamide]",< 3000
2,"Cc1cc(-c2ccc(C(=O)NS(=O)(=O)c3cccc(N)n3)c(N3C[C@@H](C)CC3(C)C)n2)cc(OCC(C)C)n1 [Compound 2010, N-[(6-amino-2-pyridyl)sulfonyl]-6-(2-isobutoxy-6-methyl-4-pyridyl)-2-[(4S)-2,2,4-trimethylpyrrolidin-1-yl]pyridine-3-carboxamide]",< 3000
3,"CC1CN(c2ncccc2C(=O)NS(=O)(=O)c2cccc(OCCC(C)(C)C)n2)C(C)(C)C1 (centres unmarked) [Compound 2025, N—[[6-(3,3-dimethylbutoxy)-2-pyridyl]sulfonyl]-2-(2,2,4-trimethylpyrrolidin-1-yl)pyridine-3-carboxamide]",< 3000
